tested on: allergic rhinitis; experiment: not given; conditions: dosed intranasally, phase I/II study; cited from earlier work

| SMILES | clinical safety | decrease in PGD2 |
| --- | --- | --- |
| Oc1cccc(Nc2ncc(F)c(Nc3cccc(O)c3)n2)c1 [Example R112] | safe across a range of indicators | statistically significant decrease |

target: T1, recombinant human GST-SYK (Homo sapiens, UniProt P43405); experiment: Homogeneous Time-Resolved Fluorescence (HTRF) assay for the recombinant human SYK enzyme; type: biochemical; conditions: recombinant human GST-SYK 5 pM, ATP 25 μM, 10-dose titration; read-out: rhSYK Activity (IC50)
T1 construct: purchased Carna Biosciences 08-176
In short: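 GST-hSYK (5 pM) preincubated 10 min at room temperature with inhibitor (0.1% DMSO) in Tris pH 7.5 buffer; reaction started with 250 nM biotinylated peptide, 5 mM Mg and 25 μM ATP, 45 min. EDTA quench with Eu-anti-phosphotyrosine antibody and SA-APC; HTRF read after 30 min.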

| SMILES | IC50 [nM] |
| --- | --- |
| Oc1ccc(CCNc2ncc(-c3cccc(Nc4nccc(C(F)(F)F)n4)c3)s2)cc1 [Example 46] | 100 to 1000 |
| FC(F)(F)c1ccnc(Nc2cccc(-c3cnc(NCc4cccc(N5CCCCC5)c4)s3)c2)n1 [Example 57] | 1000 to 10000 |
| FC(F)(F)c1ccnc(Nc2cccc(-c3cnc(NCC4CCOC4)s3)c2)n1 (stereo not drawn) [Example 45] | ≤ 100 |
| Cc1cc(Nc2nccc(C(F)(F)F)n2)cc(-c2cnc(NCC(O)c3ccncc3)s2)c1 (stereo not drawn) [Example 117] | 100 to 1000 |
| CN(CC(O)c1ccccc1)c1ncc(-c2cccc(Nc3nccc(C(F)(F)F)n3)c2)s1 (stereo not drawn) [Example 7] | ≤ 100 |
| Cc1cc(Nc2nccc(C(F)(F)F)n2)cc(-c2cnc(NCc3cnsc3)s2)c1 [Example 104] | ≤ 100 |
| CSCCC(CO)Nc1ncc(-c2cccc(Nc3nccc(C(F)(F)F)n3)c2)s1 (stereo not drawn) [Example 80] | ≤ 100 |
| Cc1cc(Nc2nccc(C(F)(F)F)n2)cc(-c2cnc(NCCc3nccs3)s2)c1 [Example 109] | ≤ 100 |
| OC1CCN(c2ncc(-c3cccc(Nc4nccc(C(F)(F)F)n4)c3)s2)CC1 [Example 129] | ≤ 100 |
| OC1CCCC(Nc2ncc(-c3cccc(Nc4nccc(C(F)(F)F)n4)c3)s2)C1 (stereo not drawn) [Example 82] | ≤ 100 |
| COc1ccnc(Nc2cc(C)cc(-c3sc(N4CCCNC(=O)C4)nc3Cl)c2)n1 [Example 227, 4-(4-chloro-5-{3-[(4-methoxypyrimidin-2-yl)amino]-5-methylphenyl}-1,3-thiazol-2-yl)-1,4-diazepan-2-one] | ≤ 100 |
| CC(=O)OCC(=O)Nc1ncc(-c2cccc(Nc3nccc(C(F)(F)F)n3)c2)s1 [Example 182, 2-oxo-2-{[5-(3-{[4-(trifluoromethyl)pyrimidin-2-yl]amino}phenyl)-1,3-thiazol-2-yl]amino}ethyl acetate] | ≤ 100 |
| COc1ccc(CCNc2ncc(-c3cccc(Nc4nccc(C(F)(F)F)n4)c3)s2)cc1 [Example 54] | 100 to 1000 |
| Cc1ccnc(Nc2cccc(-c3csc(N4CCC(C(N)=O)CC4)n3)c2)n1 [Example 232] | 100 to 1000 |
| Cc1cc(Nc2nccc(C(F)(F)F)n2)cc(-c2cnc(NCc3cn(C)cn3)s2)c1 [Example 94] | ≤ 100 |
| Cc1cc(Nc2nccc(C(F)(F)F)n2)cc(-c2cnc(NCc3cnsn3)s2)c1 [Example 105] | ≤ 100 |
| Cc1ccnc(Nc2cccc(-c3csc(N4CCC(C(=O)O)CC4)n3)c2)n1 [Example 231, 1-(4-{3-[(4-methylpyrimidin-2-yl)amino]phenyl}-1,3-thiazol-2-yl)piperidine-4-carboxylic acid] | 100 to 1000 |
| Cc1cc(Nc2nccc(C(F)(F)F)n2)cc(-c2cnc(NC(C)c3cccnc3)s2)c1 (stereo not drawn) [Example 99] | ≤ 100 |
| Cc1cc(Nc2nccc(C(F)(F)F)n2)cc(-c2cnc(N3CCOCC3)s2)c1 [Example 122] | ≤ 100 |
| COCCNc1ncc(-c2cccc(Nc3nccc(C(F)(F)F)n3)c2)s1 [Example 5] | ≤ 100 |
| Cc1cc(Nc2nccc(C(F)(F)F)n2)cc(-c2cnc(N3CCC4(CCNC4)CC3)s2)c1 [Example 1, N-{3-[2-(2,8-diazaspiro[4.5]dec-8-yl)-1,3-thiazol-5-yl]-5-methylphenyl}-4-(trifluoromethyl)-pyrimidin-2-amine] | ≤ 100 |
| FC(F)(F)c1ccnc(Nc2cccc(-c3cnc(NCc4ccccn4)s3)c2)n1 [Example 37] | ≤ 100 |
| OCCC1(c2ccc(Cl)cc2)CCN(c2ncc(-c3cccc(Nc4nccc(C(F)(F)F)n4)c3)s2)C1 (stereo not drawn) [Example 160] | 1000 to 10000 |
| FC(F)(F)c1ccnc(Nc2cccc(-c3cnc(NCc4c[nH]nc4-c4ccccc4)s3)c2)n1 [Example 78] | 100 to 1000 |
| Cc1cc(Nc2nccc(C(F)(F)F)n2)cc(-c2cnc(N(C)CCc3c[nH]c4ccccc34)s2)c1 [Example 90] | 100 to 1000 |
| Cc1cc(Nc2nccc(C(F)(F)F)n2)cc(-c2cnc(NCc3ccncc3)s2)c1 [Example 86] | ≤ 100 |
| Cc1cc(Nc2ncc(Cl)cn2)cc(-c2cnc(N3CCCNC(=O)C3)s2)c1 [Example 200, 4-(5-{3-[(5-chloropyrimidin-2-yl)amino]-5-methylphenyl}-1,3-thiazol-2-yl)-1,4-diazepan-2-one] | ≤ 100 |

| SMILES | IC50 [nM] |
| --- | --- |
| O=C1CN(c2ncc(-c3cccc(Nc4nccc(C(F)(F)F)n4)c3)s2)CCN1 [Example 123] | 1000 to 10000 |
| FC(F)(F)c1ccnc(Nc2cccc(-c3cnc(NCCc4c[nH]cn4)s3)c2)n1 [Example 35] | ≤ 100 |
| Cc1cc(Nc2nccc(C3CC3)n2)cc(-c2cnc(N3CCCNC(=O)C3)s2)c1 [Example 198, 4-(5-{3-[(4-cyclopropylpyrimidin-2-yl)amino]-5-methyphenyl}-1,3-thiazol-2-yl)-1,4-diazepan-2-one] | ≤ 100 |
| OCCCCNc1ncc(-c2cccc(Nc3nccc(C(F)(F)F)n3)c2)s1 [Example 18] | ≤ 100 |
| Cc1cc(Nc2nccc(C(F)(F)F)n2)cc(-c2cnc(N3CCC4CN(C)CC4C3)s2)c1 (stereo not drawn) [Example 153] | ≤ 100 |
| Cc1cc(Nc2nccc(C(F)(F)F)n2)cc(-c2cnc(N3CC4CNC(CO)C4C3)s2)c1 (stereo not drawn) [Example 165] | ≤ 100 |
| OCCN(CCO)c1ncc(-c2cc(Nc3nccc(C(F)(F)F)n3)cc(N3CCOCC3)c2)s1 [Example 194, 2,2′-({5-[3-(morphpholin-4-yl)-5-{[4-(trifluoromethyl)pyrimidin-2-yl]amino}phenyl]-1,3-thiazol-2-yl}imino)diethanol] | ≤ 100 |
| O[C@H]1CC[C@H](Nc2ncc(-c3cccc(Nc4nccc(C(F)(F)F)n4)c3)s2)CC1 [Example 19] | ≤ 100 |
| CC(C)(O)CNc1ncc(-c2cccc(Nc3nccc(C(F)(F)F)n3)c2)s1 [Example 29] | ≤ 100 |
| NC1CCN(c2ncc(-c3cccc(Nc4nccc(C(F)(F)F)n4)c3)s2)C1 (stereo not drawn) [Example 162] | ≤ 100 |
| Cc1cc(Nc2nccc(SCCO)n2)cc(-c2cnc(N3CCCNC(=O)C3)s2)c1 [Example 222, 4-{5-[3-({4-[(2-hydroxyethyl)sulfanyl]pyrimidin-2-yl}amino)-5-methylphenyl]-1,3-thiazol-2-yl}-1,4-diazepan-2-one] | ≤ 100 |
| Cc1cc(Nc2nccc(C(F)(F)F)n2)cc(-c2cnc(N3CCC(OCC(=O)NC(C)(C)C)CC3)s2)c1 [Example 145] | 1000 to 10000 |
| Cc1cc(Nc2nccc(C(F)(F)F)n2)cc(-c2cnc(NCc3cn4ccccc4n3)s2)c1 [Example 89] | 100 to 1000 |
| Cc1cc(Nc2nccc(C(F)(F)F)n2)cc(-c2cnc(NCCc3cnccn3)s2)c1 [Example 96] | ≤ 100 |
| NC(=O)C1CCN(c2nc(-c3cccc(Nc4nccc(C(F)(F)F)n4)c3)cs2)CC1 [Example 230, 1-[4-(3-{[4-(trifluoromethyl)pyrimidin-2-yl]amino}phenyl)-1,3-thiazol-2-yl]piperidine-4-carboxamide] | 100 to 1000 |
| Cc1cc(CNc2ncc(-c3cccc(Nc4nccc(C(F)(F)F)n4)c3)s2)no1 [Example 83] | ≤ 100 |
| FC(F)(F)c1ccnc(Nc2cccc(-c3cnc(NCc4cncnc4)s3)c2)n1 [Example 31] | ≤ 100 |
| Cc1cc(Nc2nccc(C(F)(F)F)n2)cc(-c2cnc(N3CCCNC(=O)C3)s2)c1 [Example 226, 4-[5-(3-methyl-5-{[4-(trifluoromethyl)pyrimidin-2-yl]amino}phenyl)-1,3-thiazol-2-yl]-1,4-diazepan-2-one] | ≤ 100 |
| Cc1cc(Nc2nccc(C(F)(F)F)n2)cc(-c2cnc(NCCc3cccs3)s2)c1 [Example 108] | 100 to 1000 |
| CCCSc1ccnc(Nc2cc(C)cc(-c3cnc(N4CCCNC(=O)C4)s3)c2)n1 [Example 220] | ≤ 100 |
| Cc1cc(Nc2nccc(C(F)(F)F)n2)cc(-c2cnc(NCc3cncn3C)s2)c1 [Example 87] | ≤ 100 |
| O[C@@H]1CN(c2ncc(-c3cccc(Nc4nccc(C(F)(F)F)n4)c3)s2)C[C@@H]1O [Example 157] | ≤ 100 |
| CCOCCNc1ncc(-c2cccc(Nc3nccc(C(F)(F)F)n3)c2)s1 [Example 34] | ≤ 100 |
| FC(F)(F)c1ccnc(Nc2cccc(-c3cnc(NCc4c[nH]nn4)s3)c2)n1 [Example 41] | ≤ 100 |
| Cc1cc(Nc2nccc([S+](C)[O-])n2)cc(-c2cnc(N3CCCNC(=O)C3)s2)c1 (stereo not drawn) [Example 223, 4-[5-(3-methyl-5-{[4-(methylsulfinyl)pyrimidin-2-yl]amino}phenyl)-1,3-thiazol-2-yl]-1,4-diazepan-2-one] | ≤ 100 |
| FC1CCN(c2ncc(-c3cccc(Nc4nccc(C(F)(F)F)n4)c3)s2)CC1 [Example 140] | 100 to 1000 |
| Cc1cc(Nc2nccc(C(F)(F)F)n2)cc(-c2csc(N3CCC(O)CC3)n2)c1 [Example 225, 1-[4-(3-methyl-5-{[4-(trifluoromethyl)pyrimidin-2-yl]amino}phenyl)-1,3-thiazol-2-yl]piperidin-4-ol] | 100 to 1000 |

tested on: allergic rhinitis; experiment: not given; conditions: phase II clinical trial; cited from earlier work

| SMILES | efficacy versus placebo |
| --- | --- |
| Oc1cccc(Nc2ncc(F)c(Nc3cccc(O)c3)n2)c1 [Example R112] | lack of efficacy versus placebo |
